From patent US11511095B2, “Portable transdermal administration patch apparatus and preparation method thereof” (CHANGZHOU HUALIAN HEALTH DRESSING LTD., priority 2017, dated 2022)

Assay: Simulation experiment of in vitro transdermal drug delivery in pig skin (Franz diffusion cell)
Type: in vitro ADME
Settings: 37° C.
Text: Simulation experiment of in vitro transdermal drug delivery in pig skin:
(1) pig skin with a thickness of 300-500 μm and an area of 1.0 cm^2 was selected and placed between the Franz diffusion cell supply cell and the Franz diffusion cell receiving cell. An […] side of the pig skin was oriented toward the supply cell, and then the patch apparatus was placed in the supply cell and was attached to the epidermis of the pig skin. The receiving cell was filled with phosphate buffered saline to simulate blood circulation, and the temperature in the receiving cell was maintained at 37° C. to simulate human body temperature.
(2) Set the electric quantity: 0.1 mA, the conduction time is 24 hours as desired. Press a power switch of the patch apparatus.

[1] = this method/apparatus, quantity of electric charge 2.4 mA * hour (0.1 mA, 24 hours)
[2] = traditional patch, quantity of electric charge 0 mA * hour, 24 hours

Administration dosage (μg/cm^2 skin area contacted by the drug formulation) [1]: 53.2 μg/cm^2
Administration speed [1]: 1.8 μg/(cm^2 * h)
Administration dosage (μg/cm^2 skin area contacted by the drug formulation) [2]: 1.2 μg/cm^2
Administration speed [2]: 0.1 μg/(cm^2 * h)
SMILES: Cc1nccn1CC1CCc2c(c3ccccc3n2C)C1=O (stereo not shown) [ondansetron]
